BigSolDB 2.1

## CCOC(=O)C1(c2ccccc2)CCN(CCC(C#N)(c2ccccc2)c2ccccc2)CC1
In acetone, 293.15 K
  solubility (mole fraction): 0.00426
In acetone, 298.15 K
  solubility (mole fraction): 0.00479
In acetone, 303.15 K
  solubility (mole fraction): 0.00559
In acetone, 308.15 K
  solubility (mole fraction): 0.00608
In acetone, 313.15 K
  solubility (mole fraction): 0.00664
In acetone, 318.15 K
  solubility (mole fraction): 0.00776
In acetonitrile, 293.15 K
  solubility (mole fraction): 0.00427
In acetonitrile, 298.15 K
  solubility (mole fraction): 0.005
In acetonitrile, 303.15 K
  solubility (mole fraction): 0.00601
In acetonitrile, 308.15 K
  solubility (mole fraction): 0.00727
In acetonitrile, 313.15 K
  solubility (mole fraction): 0.00919
In acetonitrile, 318.15 K
  solubility (mole fraction): 0.0124
In ethanol, 293.15 K
  solubility (mole fraction): 0.00169
In ethanol, 298.15 K
  solubility (mole fraction): 0.00198
In ethanol, 303.15 K
  solubility (mole fraction): 0.0023
In ethanol, 308.15 K
  solubility (mole fraction): 0.0027
In ethanol, 313.15 K
  solubility (mole fraction): 0.00325
In ethanol, 318.15 K
  solubility (mole fraction): 0.00432
In isopropanol, 293.15 K
  solubility (mole fraction): 0.000258
In isopropanol, 298.15 K
  solubility (mole fraction): 0.000442
In isopropanol, 303.15 K
  solubility (mole fraction): 0.000627
In isopropanol, 308.15 K
  solubility (mole fraction): 0.000859
In isopropanol, 313.15 K
  solubility (mole fraction): 0.00108
In isopropanol, 318.15 K
  solubility (mole fraction): 0.00156
In methanol, 293.15 K
  solubility (mole fraction): 0.00598
In methanol, 298.15 K
  solubility (mole fraction): 0.00791
In methanol, 303.15 K
  solubility (mole fraction): 0.0105
In methanol, 308.15 K
  solubility (mole fraction): 0.0123
In methanol, 313.15 K
  solubility (mole fraction): 0.0144
In methanol, 318.15 K
  solubility (mole fraction): 0.0184
In water, 293.15 K
  solubility (mole fraction): 8.6e-06
In water, 298.15 K
  solubility (mole fraction): 1.19e-05
In water, 303.15 K
  solubility (mole fraction): 1.45e-05
In water, 308.15 K
  solubility (mole fraction): 1.96e-05
In water, 313.15 K
  solubility (mole fraction): 2.7e-05
In water, 318.15 K
  solubility (mole fraction): 3.28e-05
